Data taken from PubChem BioAssay (NCI).
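1) Cells in 96-well plates. 2) Compound, 48 h, 5 concentrations. 3) Linear interpolation between surrounding doses. 4) Unreached endpoint = highest concentration. The concentration for full growth arrest is given as TGI.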

Experiments:
Experiment in all cases: NCI-60 cell line screen, 48 h
[1] = tested on: SF-295 CNS
[2] = tested on: OVCAR-3 ovarian
[3] = tested on: HCC-2998 colon
[4] = tested on: CAKI-1 renal
[5] = tested on: MOLT-4 leukemia
[6] = tested on: NCI-H460 lung
[7] = tested on: SW-620 colon
[8] = tested on: SN12C renal
[9] = tested on: OVCAR-8 ovarian
[10] = tested on: M14 melanoma
[11] = tested on: A549 NSCLC
[12] = tested on: UACC-257 melanoma
[13] = tested on: T-47D breast
[14] = tested on: SF-268 CNS
[15] = tested on: PC-3 prostate
[16] = tested on: SK-MEL-5 melanoma
[17] = tested on: HOP-62 NSCLC
[18] = tested on: IGROV1 ovarian
[19] = tested on: NCI/ADR-RES ovarian
[20] = tested on: HS 578T breast
[21] = tested on: HCT-116 colon
[22] = tested on: UACC-62 melanoma
[23] = tested on: UO-31 renal
[24] = tested on: SF-539 CNS
[25] = tested on: NCI-H522 lung
[26] = tested on: OVCAR-4 ovarian
[27] = tested on: OVCAR-5 ovarian
[28] = tested on: EKVX NSCLC
[29] = tested on: SNB-19 CNS
[30] = tested on: SNB-75 CNS
[31] = tested on: MDA-N
[32] = tested on: SK-MEL-28 melanoma
[33] = tested on: U251 CNS
[34] = tested on: KM12 colon
[35] = tested on: 786-0 renal
[36] = tested on: K-562 leukemia
[37] = tested on: TK-10 renal
[38] = tested on: SK-MEL-2 melanoma
[39] = tested on: HOP-92 NSCLC
[40] = tested on: MDA-MB-435
[41] = tested on: MCF7 breast
[42] = tested on: HCT-15 colon
[43] = tested on: NCI-H23 lung
[44] = tested on: DU-145 prostate
[45] = tested on: MDA-MB-231 breast
[46] = tested on: ACHN renal
[47] = tested on: A498 renal
[48] = tested on: BT-549 breast
[49] = tested on: SR leukemia
[50] = tested on: LOX IMVI melanoma
[51] = tested on: SK-OV-3 ovarian
[52] = tested on: COLO 205 colon
[53] = tested on: RXF 393 renal
[54] = tested on: CCRF-CEM leukemia
[55] = tested on: HT29 colon
[56] = tested on: HL-60(TB) leukemia
[57] = tested on: RPMI-8226 leukemia
[58] = tested on: NCI-H226 lung
[59] = tested on: MALME-3M melanoma

Structure (SMILES): NC(=O)N(O)c1cccc(Br)c1
- TGI [1]: > 100 µM
- TGI [2]: > 100 µM
- TGI [3]: > 100 µM
- TGI [4]: > 100 µM
- TGI [5]: > 100 µM
- TGI [6]: > 100 µM
- TGI [7]: > 100 µM
- TGI [8]: > 100 µM
- TGI [9]: > 100 µM
- TGI [10]: > 100 µM
- TGI [11]: > 100 µM
- TGI [12]: > 100 µM
- TGI [13]: > 100 µM
- TGI [14]: > 100 µM
- TGI [15]: > 100 µM
- TGI [16]: > 100 µM
- TGI [17]: > 100 µM
- TGI [18]: > 100 µM
- TGI [19]: > 100 µM
- TGI [20]: > 100 µM
- TGI [21]: > 100 µM
- TGI [22]: > 100 µM
- TGI [23]: > 100 µM
- TGI [24]: > 100 µM
- TGI [25]: > 100 µM
- TGI [26]: > 100 µM
- TGI [27]: > 100 µM
- TGI [28]: > 100 µM
- TGI [29]: > 100 µM
- TGI [30]: > 100 µM
- TGI [31]: > 100 µM
- TGI [32]: > 100 µM
- TGI [33]: > 100 µM
- TGI [34]: > 100 µM
- TGI [35]: > 100 µM
- TGI [36]: > 100 µM
- TGI [37]: > 100 µM
- TGI [38]: > 100 µM
- TGI [39]: > 100 µM
- TGI [40]: > 100 µM
- TGI [41]: > 100 µM
- TGI [42]: > 100 µM
- TGI [43]: > 100 µM
- TGI [44]: > 100 µM
- TGI [45]: > 100 µM
- TGI [46]: > 100 µM
- TGI [47]: > 100 µM
- TGI [48]: > 100 µM
- TGI [49]: > 100 µM
- TGI [50]: > 100 µM
- TGI [51]: > 100 µM
- TGI [52]: > 100 µM
- TGI [53]: > 100 µM
- TGI [54]: > 100 µM
- TGI [55]: > 100 µM
- TGI [56]: > 100 µM
- TGI [57]: > 100 µM
- TGI [58]: > 100 µM

Structure (SMILES): Clc1nc2c(-c3cccs3)ncnc2n1Cc1ccccc1
- TGI [1]: > 100 µM
- TGI [2]: 49.8 µM
- TGI [3]: 9.84 µM
- TGI [4]: > 21 µM
- TGI [5]: > 100 µM
- TGI [6]: > 83.2 µM
- TGI [7]: > 70.5 µM
- TGI [8]: > 100 µM
- TGI [9]: > 100 µM
- TGI [10]: > 100 µM
- TGI [11]: > 100 µM
- TGI [12]: 61.9 µM
- TGI [13]: > 91.5 µM
- TGI [14]: > 100 µM
- TGI [15]: > 76.4 µM
- TGI [16]: > 100 µM
- TGI [17]: > 100 µM
- TGI [18]: > 100 µM
- TGI [19]: > 100 µM
- TGI [20]: 87.8 µM
- TGI [21]: > 100 µM
- TGI [22]: > 100 µM
- TGI [23]: 1.09 µM
- TGI [24]: > 100 µM
- TGI [25]: > 100 µM
- TGI [26]: > 100 µM
- TGI [27]: > 100 µM
- TGI [28]: 55.4 µM
- TGI [29]: > 78.3 µM
- TGI [30]: 58.7 µM
- TGI [31]: > 100 µM
- TGI [59]: > 100 µM
- TGI [32]: > 100 µM
- TGI [33]: > 100 µM
- TGI [34]: 37.5 µM
- TGI [35]: 59.5 µM
- TGI [36]: > 100 µM
- TGI [37]: 61.5 µM
- TGI [38]: > 100 µM
- TGI [39]: 62 µM
- TGI [40]: > 100 µM
- TGI [41]: > 100 µM
- TGI [42]: > 100 µM
- TGI [43]: > 100 µM
- TGI [44]: 6.18 µM
- TGI [45]: > 81.5 µM
- TGI [46]: 4.36 µM
- TGI [47]: 55.6 µM
- TGI [48]: > 81.8 µM
- TGI [49]: > 100 µM
- TGI [50]: > 100 µM
- TGI [51]: > 95.4 µM
- TGI [52]: > 100 µM
- TGI [53]: 51.2 µM
- TGI [54]: > 100 µM
- TGI [55]: > 100 µM
- TGI [56]: > 70.3 µM
- TGI [57]: 70.6 µM
- TGI [58]: > 100 µM
